Laboratory results as given in ChEMBL document CHEMBL5584249, “Machine learning-based QSAR and LB-PaCS-MD guided design of SARS-CoV-2 main protease inhibitors” (Bioorg Med Chem Lett, 2024).

Biological target: Replicase polyprotein 1ab (Severe acute respiratory syndrome coronavirus 2, UniProt P0DTD1)
Experiment: Inhibition of recombinant SARS CoV-2 main protease by FRET assay

| SMILES | IC50 (read-out: IC50) | pIC50 | IC50 (read-out: pIC50 (converted)) |
| --- | --- | --- | --- |
| CCCCCCCCc1ccc(-n2[se]c3ccccc3c2=O)cc1 | 2.69 µM |  |  |
| COc1ccc(Cn2[se]c3ccccc3c2=O)c(OC)c1 |  | 6.215 |  |
| O=c1c2ccccc2[se]n1-c1cc(Cl)cc(Cl)c1 |  | 6.194 |  |
| COc1ccc(-n2[se]c3ccccc3c2=O)cc1 |  | 5.903 |  |
| COc1ccc(F)cc1-n1[se]c2ccccc2c1=O |  | 5.481 |  |
| O=c1c2ccccc2[se]n1-c1ccc(Br)cc1 |  | 5.556 |  |
| Cc1ccc(-n2[se]c3ccccc3c2=O)cc1 |  | 5.64 |  |
| CCc1ccc(-n2[se]c3ccccc3c2=O)cc1 |  | 5.209 |  |
| O=c1c2ccccc2[se]n1-c1cccc(Cl)c1 |  | 6.167 |  |
| COc1ccc2[se]n(-c3ccccc3)c(=O)c2c1 | 6.4 µM |  | 6.18 µM |
| O=c1c2ccccc2[se]n1-c1c(F)cccc1F |  | 5.68 |  |
| N#Cc1cccc(-n2[se]c3ccccc3c2=O)c1 |  | 6.42 |  |
| Cc1ccccc1-n1[se]c2ccccc2c1=O |  | 5.129 |  |
| O=c1c2ccccc2[se]n1-c1ccc(C(F)(F)F)cc1 | 0.9 µM |  | 0.883 µM |
| CCCCCCCc1ccc(-n2[se]c3ccccc3c2=O)cc1 | 5.56 µM |  |  |
| O=c1c2ccccc2[se]n1-c1ccc(F)cc1 |  | 5.556 |  |
| COc1cc(F)ccc1-n1[se]c2ccccc2c1=O |  | 5.745 |  |
| O=c1c2ccccc2[se]n1-c1cccc(C(F)(F)F)c1 |  | 5.558 |  |
| O=c1c2ccccc2[se]n1Cc1ccc(F)cc1 |  | 6 |  |
